Assay results reported in patent EP4700024A1, “CYCLOPENTYLPYRAZOLAMINE DERIVATIVE AND USE THEREOF” (Chia Tai Tianqing Pharmaceutical Group Co., Ltd., priority 2023, dated 2024).
Like-named read-outs stand apart in the source and are kept apart here.

Assays:
CDK2 CycE1 kinase = CDK2 CycE1 kinase (Homo sapiens, UniProt P24941); assay: Determination of inhibitory activity against CDK2 CycE1 kinase; format: biochemical
Description: 1.2 Determination of inhibitory activity against CDK2 CycE1 kinase
CDK2 CycEl kinase solution (concentration: 0.015 ng/µL) was added to assay wells at 6 µL/well, and different compounds dissolved in DMSO were added to the assay wells separately using a nanoliter pipettor, such that the final concentrations of the compounds were 300 nM to 0.07 nM. The wells were set in duplicate, and a control well was set. After a 30-min incubation of the above system, ATP (concentration: 50 µM or 5000 µM) was mixed with ULight-Myelin Basic Protein Peptide substrate (manufacturer: PerkinElmer, concentration: 0.25 µM) in a ratio of 1:1, and the mixture was added to the assay wells at 4 µL/well. The resultant mixture was left to react at room temperature for 2 h, and then 5 µL of EDTA was added to terminate the reaction, followed by the addition of 5 µL of a detection antibody (manufacturer: PerkinElmer, concentration: 8 nM). The mixture was incubated at room temperature for 1 h. The assay was performed using a PerkinElmer Envision multifunctional microplate reader (excitation: 320 nm, emission: 615 nm/665 nm), and IC50 was calculated by four-parameter fitting. […] Table 1: Inhibitory activity of compound against CDK2 CycA2 and CDK2 CycEl kinases

CDK2/CycA2 kinase = CDK2/CycA2 kinase (Homo sapiens, UniProt P24941); assay: Determination of inhibitory activity against CDK2/CycA2 kinase; format: biochemical
Description: 1.1 Determination of inhibitory activity against CDK2/CycA2 kinase
CDK2/CycA2 kinase solution (concentration: 0.078 ng/µL) was added to assay wells at 6 µL/well, and different compounds dissolved in DMSO were added to the assay wells separately using a nanoliter pipettor, such that the final concentrations of the compounds were 1000 nM to 0.244 nM. The wells were set in duplicate, and a control well was set. After a 30-min incubation of the above system, ATP (concentration: 50 µM or 5000 µM) was mixed with ULight-Myelin Basic Protein Peptide substrate (manufacturer: PerkinElmer, concentration: 0.25 µM) in a ratio of 1:1, and the mixture was added to the assay wells at 4 µL/well. The resultant mixture was left to react at room temperature for 2 h, and then 5 µL of EDTA was added to terminate the reaction, followed by the addition of 5 µL of a detection antibody (manufacturer: PerkinElmer, concentration: 8 nM). The mixture was incubated at room temperature for 1 h. The assay was performed using a PerkinElmer Envision multifunctional microplate reader (excitation: 320 nm, emission: 615 nm/665 nm), and IC50 was calculated by four-parameter fitting.

[1] = CDK2/CycA2 10 µM ATP (kinase) IC50 (nM)
[2] = read-out: CDK2/CycE1 10 µM ATP (kinase) IC50
[3] = read-out: CDK2/CycA2 10 µM ATP (kinase) IC50

| IC50 (CDK2 CycE1 kinase; 10 µM ATP (kinase)) [µM] | IC50 (CDK2/CycA2 kinase; [1]) [nM] | IC50 (CDK2 CycE1 kinase; [2]) [µM] | IC50 (CDK2/CycA2 kinase; [3]) [nM] | SMILES |
| --- | --- | --- | --- | --- |
| < 0.01 | < 10 | – | – | O=C(NC1CCC1)OC1CCC(c2cc(Nc3ccc4c(c3)CS(=O)(=O)C4)[nH]n2)C1 (centres unmarked) [Compound 1] |
| – | – | < 0.01 | 10 to 50 | CC(C)NC(=O)OC1CCC(c2cc(Nc3ccc4c(c3)C[S+]([O-])C4)n[nH]2)C1 (centres unmarked) [Compound 2] |
| – | – | < 0.01 | < 10 | CC(NC(=O)OC1CCC(c2cc(Nc3ccc4c(c3)CS(=O)(=O)C4)[nH]n2)C1)C1CC1 (centres unmarked) [Compound 3] |
| < 0.01 | < 10 | – | – | CC(C)(C)NC(=O)OC1CCC(c2cc(Nc3ccc4c(c3)CS(=O)(=O)C4)[nH]n2)C1 (centres unmarked) [Compound 4] |
| – | – | < 0.01 | < 10 | C[C@H](NC(=O)O[C@@H]1CC[C@H](c2cc(Nc3ccc4c(c3)CS(=O)(=O)C4)[nH]n2)C1)C1CC1 [Compound 5] |
| < 0.01 | 10 to 50 | – | – | CC(C)(CCO)NC(=O)OC1CCC(c2cc(Nc3ccc4c(c3)CS(=O)(=O)C4)[nH]n2)C1 (centres unmarked) [Compound 6] |
| < 0.01 | < 10 | – | – | O=C(NC12CC(C1)C2)OC1CCC(c2cc(Nc3ccc4c(c3)CS(=O)(=O)C4)[nH]n2)C1 (centres unmarked) [Compound 7] |
| – | – | 0.01 to 0.05 | – | COCc1cc(Nc2cc([C@H]3CC[C@@H](OC(=O)NC(C)C)C3)n[nH]2)cc2c1C(C)S(=O)(=O)C2 (some centres unmarked) [Compound 8] |
| < 0.01 | < 10 | – | – | CCNC(=O)OC1CCC(c2cc(Nc3ccc4c(c3)CS(=O)(=O)C4)[nH]n2)C1 (centres unmarked) [Compound 10] |
| < 0.01 | < 10 | – | – | CC(C)NC(=O)OC1CCC(c2cc(Nc3cc(F)c4c(c3)CS(=O)(=O)C4)[nH]n2)C1 (centres unmarked) [Compound 11] |
| < 0.01 | 10 to 50 | – | – | O=C(NCC(F)(F)F)OC1CCC(c2cc(Nc3ccc4c(c3)CS(=O)(=O)C4)[nH]n2)C1 (centres unmarked) [Compound 12] |
| < 0.01 | < 10 | – | – | O=C(NCC(F)F)OC1CCC(c2cc(Nc3ccc4c(c3)CS(=O)(=O)C4)[nH]n2)C1 (centres unmarked) [Compound 13] |
| < 0.01 | < 10 | – | – | CC(C)(C)NC(=O)OC1CCC(c2cc(Nc3ccc4c(c3)C[S+]([O-])C4)n[nH]2)C1 (centres unmarked) [Compound 14] |
| < 0.01 | – | – | – | CC(C)NC(=O)OC1CCC(c2cc(Nc3ccc4c(c3)CCS4(=O)=O)n[nH]2)C1 (centres unmarked) [Compound 15] |
| < 0.01 | < 10 | – | – | O=C(NC12CC(C1)C2)OC1CCC(c2cc(Nc3ccc4c(c3)C[S+]([O-])C4)n[nH]2)C1 (centres unmarked) [Compound 16] |
| < 0.01 | < 10 | – | – | CC1(C)CCN1C(=O)OC1CCC(c2cc(Nc3ccc4c(c3)CS(=O)(=O)C4)[nH]n2)C1 (centres unmarked) [Compound 17] |
| – | – | – | < 10 | CC1(C)CCN1C(=O)OC1CCC(c2cc(Nc3ccc4c(c3)CS(=O)(=O)C4)[nH]n2)C1 (centres unmarked) [Compound 18] |
| 0.01 to 0.05 | – | – | – | CCNC(=O)OC1CCC(c2cc(Nc3ccc4c(c3)C[S+]([O-])C4)[nH]n2)C1 (centres unmarked) [Compound 19] |

| IC50 (CDK2 CycE1 kinase; 10 µM ATP (kinase)) [µM] | IC50 (CDK2/CycA2 kinase; [1]) [nM] | IC50 (CDK2 CycE1 kinase; [2]) [µM] | IC50 (CDK2/CycA2 kinase; [3]) [nM] | SMILES |
| --- | --- | --- | --- | --- |
| 0.01 to 0.05 | – | – | – | CC1CN(C)CCN1C(=O)OC1CCC(c2cc(Nc3ccc4c(c3)C[S+]([O-])C4)[nH]n2)C1 (centres unmarked) [Compound 20] |
| < 0.01 | < 10 | – | – | CC1CN(C)CCN1C(=O)OC1CCC(c2cc(Nc3ccc4c(c3)CS(=O)(=O)C4)[nH]n2)C1 (centres unmarked) [Compound 21] |
| < 0.01 | 10 to 50 | – | – | CC(C)NC(=O)OC1CCC(c2cc(Nc3ccc4c(c3)C[S+]([O-])C4)n[nH]2)C1 (centres unmarked) [Compound 22] |
| – | – | < 0.01 | – | CC(C)NC(=O)OC1CCC(c2cc(Nc3ccc4c(c3)C[S+]([O-])C4)n[nH]2)C1 (centres unmarked) [Compound 23] |
| 0.01 to 0.05 | – | – | – | O=C(NC1CC1)OC1CCC(c2cc(Nc3ccc4c(c3)C[S+]([O-])C4)[nH]n2)C1 (centres unmarked) [Compound 24] |
| < 0.01 | 10 to 50 | – | – | CC1(NC(=O)OC2CCC(c3cc(Nc4ccc5c(c4)C[S+]([O-])C5)[nH]n3)C2)CC1 (centres unmarked) [Compound 25] |
| < 0.01 | < 10 | – | – | CC1(C)CCN1C(=O)OC1CCC(c2cc(Nc3ccc4c(c3)C[S+]([O-])C4)[nH]n2)C1 (centres unmarked) [Compound 26] |
| – | < 10 | < 0.01 | – | CC1(C)CCN1C(=O)OC1CCC(c2cc(Nc3ccc4c(c3)C[S+]([O-])C4)[nH]n2)C1 (centres unmarked) [Compound 29] |
| – | 10 to 50 | < 0.01 | – | CC1(C)CCN1C(=O)OC1CCC(c2cc(Nc3ccc4c(c3)C[S+]([O-])C4)[nH]n2)C1 (centres unmarked) [Compound 30] |
| – | < 10 | < 0.01 | – | CC1(NC(=O)OC2CCC(c3cc(Nc4ccc5c(c4)C[S+]([O-])C5)[nH]n3)C2)CC1 (centres unmarked) [Compound 31] |
| – | – | < 0.01 | – | CC1(NC(=O)OC2CCC(c3cc(Nc4ccc5c(c4)C[S+]([O-])C5)[nH]n3)C2)CC1 (centres unmarked) [Compound 32] |
| – | – | < 0.01 | – | O=C(NC12CC(C1)C2)OC1CCC(c2cc(Nc3ccc4c(c3)C[S+]([O-])C4)n[nH]2)C1 (centres unmarked) [Compound 33] |
| – | – | < 0.01 | – | O=C(NC12CC(C1)C2)OC1CCC(c2cc(Nc3ccc4c(c3)C[S+]([O-])C4)n[nH]2)C1 (centres unmarked) [Compound 34] |
| – | – | < 0.01 | – | CC(C)(C)NC(=O)OC1CCC(c2cc(Nc3ccc4c(c3)C[S+]([O-])C4)n[nH]2)C1 (centres unmarked) [Compound 35] |
| – | – | < 0.01 | – | CC(C)(C)NC(=O)OC1CCC(c2cc(Nc3ccc4c(c3)C[S+]([O-])C4)n[nH]2)C1 (centres unmarked) [Compound 36] |
| – | – | 0.01 to 0.05 | – | CCNC(=O)OC1CCC(c2cc(Nc3ccc4c(c3)C[S+]([O-])C4)[nH]n2)C1 (centres unmarked) [Compound 37] |
| < 0.01 | – | – | – | O=C(NC1CC1F)OC1CCC(c2cc(Nc3ccc4c(c3)C[S+]([O-])C4)[nH]n2)C1 (centres unmarked) [Compound 41] |
